Calls of active or inactive are those of the source.

The species entered for data set [1] is Homo sapiens. Put plainly: Selectivity for S1P1 receptor over S1P2 receptor.
The target of data set [2] is T1, Sphingosine 1-phosphate receptor 1 (Homo sapiens, UniProt P21453). Put plainly: Inhibition of S1P1 receptor at 10 uM.
Data set [3] deals with T2, Sphingosine 1-phosphate receptor 3 (Homo sapiens, UniProt Q99500). Put plainly: Inhibition of S1P3 receptor at 10 uM.
Data set [4] addresses T3, Sphingosine 1-phosphate receptor 5 (Homo sapiens, UniProt Q9H228). In words: Inhibition of S1P5 receptor at 10 uM.
The species entered for data set [5] is Homo sapiens. Put plainly: Selectivity for S1P1 receptor over S1P4 receptor.
Data set [6] has as its target T1, Sphingosine 1-phosphate receptor 1. In words: Agonist activity at S1P1 receptor assessed as induction of [35S]GTP-gamma-S binding. Type of data set: functional.
Data set [7] has as its target T2, Sphingosine 1-phosphate receptor 3. Put plainly: Agonist activity at S1P3 receptor assessed as induction of [35S]GTP-gamma-S binding. The class given is functional. (In general: Binding of GTPγS marks nucleotide exchange on a G protein.)
Data set [8] concerns the target T3, Sphingosine 1-phosphate receptor 5. Put plainly: Agonist activity at S1P5 receptor assessed as induction of [35S]GTP-gamma-S binding. Type of data set: functional.
The species named for data set [9] is Homo sapiens. Put plainly: Selectivity for S1P1 receptor over S1P5 receptor.
The species named for data set [10] is Homo sapiens. In words: Selectivity for S1P1 receptor over S1P3 receptor.
In the next data set the test system is Mus musculus. In words: Lowering of lymphocytes in mouse at 0.3 mg/kg, po. The class given is functional, organism-based. Also noted: dose 0.3 mg/kg.
Data set [11] is described as follows: Oral bioavailability in rat. The class given is ADME, organism-based. The note with it: in vivo.
The nature of data set [12]: Half life in rat. The conditions noted are these: in vivo. Type of data set: ADME, organism-based.

T3 sequence (Q9H228 whole entry): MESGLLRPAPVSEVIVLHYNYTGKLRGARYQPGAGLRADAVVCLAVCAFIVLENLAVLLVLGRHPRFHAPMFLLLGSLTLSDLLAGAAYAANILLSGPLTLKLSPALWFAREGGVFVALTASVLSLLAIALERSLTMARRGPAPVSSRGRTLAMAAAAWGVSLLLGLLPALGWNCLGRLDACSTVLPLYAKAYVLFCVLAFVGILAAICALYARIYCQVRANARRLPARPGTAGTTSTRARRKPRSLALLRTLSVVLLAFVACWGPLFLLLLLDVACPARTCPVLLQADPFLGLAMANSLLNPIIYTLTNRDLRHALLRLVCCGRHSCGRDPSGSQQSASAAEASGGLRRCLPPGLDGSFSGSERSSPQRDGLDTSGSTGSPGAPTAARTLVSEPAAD
T2 sequence (Q99500 whole entry): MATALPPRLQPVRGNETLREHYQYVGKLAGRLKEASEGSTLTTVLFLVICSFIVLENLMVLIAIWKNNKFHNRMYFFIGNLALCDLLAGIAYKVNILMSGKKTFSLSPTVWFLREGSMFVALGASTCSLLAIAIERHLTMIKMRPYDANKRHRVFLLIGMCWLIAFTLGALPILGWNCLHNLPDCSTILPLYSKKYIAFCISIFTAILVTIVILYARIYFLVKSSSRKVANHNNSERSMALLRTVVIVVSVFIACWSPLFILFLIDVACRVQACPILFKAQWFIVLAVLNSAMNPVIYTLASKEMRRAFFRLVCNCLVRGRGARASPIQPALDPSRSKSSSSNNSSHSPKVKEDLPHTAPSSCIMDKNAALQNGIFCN
T1 sequence (P21453 whole entry): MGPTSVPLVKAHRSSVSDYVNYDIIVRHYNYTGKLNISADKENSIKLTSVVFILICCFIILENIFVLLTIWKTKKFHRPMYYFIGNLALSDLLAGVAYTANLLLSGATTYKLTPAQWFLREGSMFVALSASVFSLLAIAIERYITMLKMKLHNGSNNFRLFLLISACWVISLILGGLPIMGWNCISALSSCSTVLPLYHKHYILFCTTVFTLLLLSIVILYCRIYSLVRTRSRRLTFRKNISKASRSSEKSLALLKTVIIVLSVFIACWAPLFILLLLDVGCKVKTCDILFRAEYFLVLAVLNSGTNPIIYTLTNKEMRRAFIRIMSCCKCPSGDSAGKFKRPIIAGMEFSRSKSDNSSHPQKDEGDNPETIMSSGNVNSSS

The inhibition is the share of the control response that was lost under treatment. A lower inhibition goes with little suppression. Consider `Cc1cc(CCC(=O)O)ccc1-c1csc(-c2cnc(OC(C)C)c(Cl)c2)n1`, for which the Selectivity ratio in the data set listed under Homo sapiens [1] and in the data set listed under Homo sapiens [5] was > 1000 in each case. For the same compound, the figures for the inhibition in [2], in data set [3] and in data set [4] were 30%, 0% and 6%, respectively.
In general, EC50 refers to the concentration at which the effect is half-maximal. `Cc1cc(CCC(=O)O)ccc1-c1coc(-c2cnc(OC(C)C)c(Cl)c2)n1`: the EC50 in data set [6] came out at 1 µM. Besides, the Selectivity ratio in the data set listed under Homo sapiens [1] and in the data set filed under Homo sapiens [5] was > 1000 each time. In addition, the inhibition in data set [3] turned out to be 8%; in data set [4], 0%.
Consider `Cc1cc(CCC(=O)O)ccc1-c1nnc(-c2cnc(OC(C)C)c(Cl)c2)o1`, for which, in [6], the 50% effective concentration (EC50) turned out to be 0.019 µM. In addition, the Selectivity ratio in the data set listed under Homo sapiens [1] and in the data set listed under Homo sapiens [5] was > 1000 in each case. The inhibition came out at 82% in data set [3] and 44% in data set [4].
The term bioavailability denotes dose-corrected exposure relative to a reference, in per cent. A word on the half-life: it is the time needed for the level to fall by half in the phase considered. Read a high half-life as slow loss. On to `Cc1cc(CCC(=O)O)ccc1-c1ncc(-c2ccc(OC(C)C)c(C#N)c2)s1`, for which the 50% effective concentration (EC50) in [6] was 0.00018 µM; in data set [7], > 10 µM; in [8] it was 0.12 µM. Also, the Selectivity ratio was > 1000 in the data set filed under Homo sapiens [1], > 600 in the data set filed under Homo sapiens [9], > 10000 in the data set listed under Homo sapiens [10] and > 1000 in the data set listed under Homo sapiens [5]. The outcome in the data set on Mus musculus was Active. Moreover, in data set [11], the bioavailability was found to be 39%. The half-life in [12] is < 1 h.

The values are drawn from ChEMBL document CHEMBL1138961, “Highly selective and potent agonists of sphingosine-1-phosphate 1 (S1P1) receptor” (Bioorg Med Chem Lett, 2006).
